Data: ChEMBL document CHEMBL1158193, “Ability of different flavonoids to inhibit the procoagulant activity of adherent human monocytes” (J Nat Prod, 1996)

Experiments:
Monocyte [1] = experiment: Inhibition of procoagulant activity in monocyte from human blood assessed as counteraction of IL1-induced tissue factor expression at 10 uM after 18 hrs measured as microunits of tissue factor/10^5 cells; type: functional
Monocyte [2] = experiment: Inhibition of procoagulant activity in monocyte from human blood assessed as counteraction of IL1-induced tissue factor expression after 18 hrs; type: functional, cell-based
Monocyte [3] = experiment: Inhibition of procoagulant activity in monocyte from human blood assessed as counteraction of endotoxin-induced tissue factor expression after 18 hrs; type: functional, cell-based

| SMILES | Activity (Monocyte [1]) | IC50 (Monocyte [2]) | IC50 (Monocyte [3]) |
| --- | --- | --- | --- |
| COc1cc(C2Oc3cc([C@H]4Oc5cc(O)cc(O)c5C(=O)[C@@H]4O)ccc3OC2CO)ccc1O (stereo partly specified) [SILIBININ] | 0 | – | – |
| COc1ccc(-c2cc(=O)c3c(O)cc(O)c(-c4cc(-c5cc(=O)c6c(O)cc(OC)cc6o5)ccc4OC)c3o2)cc1 [SCIADOPITISIN] | 0 | – | – |
| COc1c(-c2ccccc2)oc2c(ccc3occc32)c1=O [KARANJIN] | 0 | – | – |
| COc1cc(-c2cc(=O)c3c(O)cc(O)cc3o2)ccc1O [CHRYSOERIOL] | – | 2600 nM | – |
| COc1ccc(-c2cc(=O)c3c(O)cc(O)cc3o2)cc1O [DIOSMETIN] | – | 3000 nM | – |
| O=C1c2ccc(O)cc2O[C@H](c2ccc(O)c(O)c2)[C@H]1O [FUSTIN] | 0 | – | – |
| O=c1cc(-c2ccc(O)c(O[C@@H]3O[C@H](CO)[C@@H](O)[C@H](O)[C@H]3O)c2)oc2cc(O[C@@H]3O[C@H](CO)[C@@H](O)[C@H](O)[C@H]3O)cc(O)c12 [LUTEOLIN-3',7-DIGLUCOSIDE] | – | 1550 nM | – |
| COc1ccc(-c2cc(=O)c3c(OC)c(OC)c(OC)cc3o2)cc1O | 0 | – | – |
| O=C1c2ccc(O)cc2O[C@@H](c2cc(O)c(O)c(O)c2)[C@@H]1O [DIHYDROROBINETIN] | 0 | – | – |
| O=c1c(O)c(-c2cc(O)c(O)c(O)c2)oc2cc(O)cc(O)c12 [MYRICETIN] | 1.2 | – | – |
| O=c1c(-c2ccc(O)cc2)coc2cc(O[C@@H]3O[C@H](CO)[C@@H](O)[C@H](O)[C@H]3O)ccc12 [DAIDZIN] | 0 | – | – |
| O=c1c(O)c(-c2ccccc2)oc2cc(O)cc(O)c12 [GALANGIN] | 0 | – | – |
| C[C@@H]1O[C@@H](OC[C@H]2O[C@@H](Oc3cc(O)c4c(c3)O[C@H](c3ccc(O)cc3)CC4=O)[C@H](O)[C@@H](O)[C@@H]2O)[C@H](O)[C@H](O)[C@H]1O [NARIRUTIN] | 0 | – | – |
| O=c1cc(-c2ccccc2)oc2cc(O)c(O)c(O)c12 [BAICALEIN] | 55.2 | – | – |
| CC(=O)OC[C@H]1O[C@@H](Oc2c(-c3ccc(O)c(O)c3)oc3cc(O)cc(O)c3c2=O)[C@H](O)[C@@H](O)[C@@H]1O | 12.4 | – | – |
| COc1cc(-c2cc(=O)c3c(O)cc(O)cc3o2)cc(OC)c1OC | 0 | – | – |
| COc1ccc([C@@H]2CC(=O)c3c(O)cc(O)cc3O2)cc1O [HESPERETIN] | – | 2100 nM | – |
| O=c1c(O)c(-c2ccccc2O)oc2cc(O)cc(O)c12 [DATISCETIN] | 28.4 | – | – |
| O=c1cc(-c2ccccc2)oc2cc(O)cc(O)c12 [CHRYSIN] | – | 2400 nM | – |
| C[C@H]1O[C@@H](Oc2c(-c3cc(O)c(O)c(O)c3)oc3cc(O)cc(O)c3c2=O)[C@@H](O)[C@@H](O)[C@@H]1O [MYRICITRIN] | 37.7 | – | – |

| SMILES | Activity (Monocyte [1]) | IC50 (Monocyte [2]) | IC50 (Monocyte [3]) |
| --- | --- | --- | --- |
| O=C1C[C@@H](c2ccc(O)cc2)Oc2cc(O)cc(O)c21 [NARINGENIN] | 0 | – | – |
| COc1ccc(-c2cc(=O)c3c(O)cc(O)cc3o2)cc1 [ACACETIN] | 26 | – | – |
| O=c1c(-c2ccc3c(c2)OCO3)coc2cc(O)ccc12 [PSEUDOBAPTOGENIN] | 0 | – | – |
| O=c1cc(-c2ccc(O)cc2)oc2cc(O)cc(O)c12 [APIGENIN] | – | 1200 nM | – |
| O=c1c(O[C@@H]2O[C@@H](CO)[C@H](O)[C@H]2O)c(-c2ccc(O)c(O)c2)oc2cc(O)cc(O)c12 [AVICULARIN] | 0 | – | – |
| COc1cc(-c2oc3cc(O)cc(O)c3c(=O)c2O)cc(OC)c1O [SYRINGETIN] | – | 2100 nM | – |
| COc1cc(-c2cc(=O)c3c(O)c(OC)c(OC)cc3o2)cc(OC)c1OC [GRADENIN A] | 0 | – | – |
| COc1cc(O)c2c(=O)c(O)c(-c3ccc(O)c(O)c3)oc2c1 [RHAMNETIN] | 0 | – | – |
| O=c1cc(-c2ccc(O)c(O)c2)oc2cc(O)cc(O)c12 [LUTEOLIN] | 10.6 | 1500 nM | – |
| C[C@@H]1O[C@@H](OC[C@H]2O[C@@H](Oc3c(-c4ccc(O)c(O)c4)oc4cc(O)cc(O)c4c3=O)[C@H](O)[C@@H](O)[C@@H]2O)[C@H](O)[C@H](O)[C@H]1O [RUTIN] | 9.1 | – | – |
| O=c1cc(-c2ccc(O)c(-c3c(O)cc(O)c4c(=O)cc(-c5ccc(O)cc5)oc34)c2)oc2cc(O)cc(O)c12 [AMENTOFLAVONE] | – | 3000 nM | – |
| O=c1c(O)c(-c2ccc(O)c(O)c2)oc2cc(O)ccc12 [FISETIN] | – | 3700 nM | – |
| O=c1c(O)c(-c2ccc(O)c(O)c2)oc2cc(O)cc(O)c12 [QUERCETIN] | 0 | – | – |
| O=c1c(O)c(-c2ccc(O)cc2O)oc2cc(O)cc(O)c12 [MORIN] | 0 | – | – |
| O=c1c(O)c(-c2ccc(O)c(O)c2)oc2cc(O)c(O)c(O)c12 [QUERCETAGETIN] | 0 | – | – |
| O=c1c(O)c(-c2ccc(O)cc2)oc2cc(O)cc(O)c12 [KAEMPFEROL] | – | 2700 nM | – |
| COc1cc(-c2oc3cc(O)cc(O)c3c(=O)c2O)ccc1O [ISORHAMNETIN] | – | 3800 nM | – |
| O=C1c2c(O)cc(O)cc2O[C@H](c2ccc(O)c(O)c2)[C@H]1O [(+)-TAXIFOLIN] | 41 | – | – |
| COc1cc(-c2oc3cc(O)ccc3c(=O)c2O)ccc1O [GERALDOL] | – | 2300 nM | – |
| COc1ccc(-c2oc3cc(O)cc(O)c3c(=O)c2O)cc1 [KAEMPFERIDE] | – | 5700 nM | – |

| SMILES | Activity (Monocyte [1]) | IC50 (Monocyte [2]) | IC50 (Monocyte [3]) |
| --- | --- | --- | --- |
| O=c1c(O[C@@H]2O[C@H](CO)[C@@H](O)[C@H](O)[C@H]2O)c(-c2ccc(O)cc2)oc2cc(O)cc(O)c12 [ASTRAGALIN] | 0 | – | – |
| CCCC(=O)Oc1c(OC)cc(O)c2c(=O)c(O)c(-c3ccccc3)oc12 | 0 | – | – |
| O=c1cc(-c2ccc(Oc3c(O)cc4oc(-c5ccc(O)cc5)cc(=O)c4c3O)cc2)oc2cc(O)cc(O)c12 [HINOKIFLAVONE] | 0 | 48 nM | 18 nM |
| COc1ccc(-c2cc(=O)c3c(OC)c(OC)c(OC)cc3o2)cc1OC [SINENSETIN] | – | 10000 nM | – |
| O=c1c(O)c(-c2cc(O)c(O)c(O)c2)oc2cc(O)ccc12 [ROBINETIN] | 38.5 | – | – |
| COc1ccc([C@@H]2CC(=O)c3c(O)cc(O[C@@H]4O[C@H](CO)[C@@H](O)[C@H](O)[C@H]4O[C@@H]4O[C@@H](C)[C@H](O)[C@@H](O)[C@H]4O)cc3O2)cc1O [NEOHESPERIDIN] | 0 | – | – |
| COc1ccc(-c2cc(=O)c3c(O)c(OC)c(OC)cc3o2)cc1O [EUPATORIN] | 0 | – | – |
| O=C(/C=C/c1ccc(O)cc1)OC[C@H]1O[C@@H](Oc2c(-c3ccc(O)cc3)oc3cc(O)cc(O)c3c2=O)[C@H](O)[C@@H](O)[C@@H]1O [TILIROSIDE] | – | 5200 nM | – |
| COc1cc(-c2oc3cc(O)cc(O)c3c(=O)c2O[C@@H]2O[C@H](CO)[C@@H](O)[C@H](O)[C@H]2O)ccc1O | – | 3800 nM | – |
| COc1cc2oc(-c3ccc(O)cc3)cc(=O)c2cc1CC=C(C)C [BAVACHININ] | – | 3200 nM | – |
| COc1ccc(-c2oc3cc(O)cc(O)c3c(=O)c2O)cc1O [TAMARIXETIN] | – | 4600 nM | – |
| C[C@@H]1O[C@@H](OC[C@H]2O[C@@H](Oc3c(-c4ccccc4O)oc4cc(O)cc(O)c4c3=O)[C@H](O)[C@@H](O)[C@@H]2O)[C@H](O)[C@H](O)[C@H]1O | 28.4 | – | – |
| COc1cc(O)c2c(=O)cc(-c3ccccc3)oc2c1 [TECHTOCHRYSIN] | 39 | – | – |
| COc1cc([C@@H]2CC(=O)c3c(O)cc(O)cc3O2)ccc1O [HOMOERIODICTYOL] | 0 | – | – |
| O=c1cc(-c2ccccc2)oc2ccccc12 [FLAVONE] | 6.8 | – | – |
| COc1ccc(-c2cc(=O)c3ccccc3o2)cc1 [4'-METHOXYFLAVONE] | 0 | – | – |
| O=c1c(-c2ccc(O)cc2)coc2cc(O)ccc12 [DAIDZEIN] | 0 | – | – |
| COc1ccc(-c2cc(=O)c3c(OC)c(OC)c(OC)c(OC)c3o2)cc1 [TANGERETIN] | 0 | – | – |
